pEC50, pIC50: −log10 of the molar value.
biological target: KRAS^G12D-FMe.RAF1^RBDCRD complex (Homo sapiens, UniProt P01116, G12D); assay: SHG assay: binding to bilayer-tethered KRAS G12D/RAF1 complex; settings: GppNHp-loaded complex on PS bilayer; compound 0.027-40 μM, monitored over 60 min
Experimental: Compounds suspected to carry intrinsic SHG activity were tested in the presence of an unlabeled KRAS^G12D-FMe.RAF1^RBDCRD complex to monitor binding. PS bilayer was prepared from PS-enriched small unilamellar vesicles (SUVs) purchased from Biodesy, Inc. The concentrated SUVs were diluted in TBS buffer containing 5 mM CaCl2 and incubated on a glass-bottom 384-well Biodesy Delta™ assay plate to allow bilayer formation. Equimolar amounts of GppNHp-loaded KRAS^G12D-FMe and RAF1^RBDCRD were mixed and incubated together on PS bilayer overnight at 4° C. The following day, untethered protein was removed by washing with assay buffer (20 mM Hepes, pH 7.4, […], 1 mM TCEP, 5 μM GppNHp). The SHG signal produced by bilayer-tethered complex was ready using the Biodesy Delta™ platform where each well was pulsed with an 800 nm laser and the resulting second harmonic signal intensity at 400 nm was collected. Compounds were diluted into the same assay buffer and applied to the complex at a final concentration range spanning 0.027 μM-40 μM and the SHG intensity of each well was monitored at 5 minute intervals over a 60 minute time period.

Row | pEC50 | Compound
1 | 5.00 to 6.00 | Cc1ccc(-c2ncc(CNC(=O)C(F)(F)c3ccccc3)c(N3CCC(CN)C3)n2)cc1Cl (stereo not drawn) [Compound 134]
2 | 4.30 to 5.00 | CN1CCC(Oc2nc(-c3ccc(Cl)c(C(F)(F)F)c3)ncc2CNC(=O)C2(C#N)CC2)C1 (stereo not drawn) [Compound 79]
3 | 5.00 to 6.00 | N#CC1(C(=O)NCc2cnc(-c3ccc(Cl)c(C(F)(F)F)c3)nc2N2CCC(F)(CN)C2)CC1 (stereo not drawn) [Compound 47]
4 | 5.00 to 6.00 | Cc1ccc(-c2ncc(CNC(=O)C3CN(C)C3)c(N3CCC(CN)C3)n2)cc1Cl (stereo not drawn) [Compound 86]
5 | 5.00 to 6.00 | Cc1ccc(-c2ncc(CNC(=O)C(F)c3ccccc3)c(N3CCC(CN)C3)n2)cc1Cl (stereo not drawn) [Compound 133]
6 | 5.00 to 6.00 | NCC1CCN(c2nc(-c3ccc(Cl)c(Cl)c3)ncc2C2=CCNC2)C1 (stereo not drawn) [Compound 10]
7 | 5.00 to 6.00 | N#CC1(C(=O)N2CC=C(c3cnc(-c4ccc(Cl)c(C(F)(F)F)c4)nc3N3CCC(CN)C3)C2)CC1 (stereo not drawn) [Compound 29]
8 | 5.00 to 6.00 | NCc1cnc(-c2ccc(Cl)c(C(F)(F)F)c2)nc1N1CCC(CN)C1 (stereo not drawn) [Compound 4]
9 | 5.00 to 6.00 | C#CC1(C(=O)NCc2cnc(-c3ccc(Cl)c(C(F)(F)F)c3)nc2N2CCC(CN)C2)CC1 (stereo not drawn) [Compound 145]
10 | 5.00 to 6.00 | NC[C@@H]1CCN(c2nc(-c3ccc(Cl)c(C(F)(F)F)c3)ncc2C2CC2)C1 [Compound 14]
11 | 5.00 to 6.00 | Cc1ccc(-c2ncc(CNS(=O)(=O)c3ccccc3)c(N3CCC(CN)C3)n2)cc1Cl (stereo not drawn) [Compound 94]
12 | 5.00 to 6.00 | Cc1ccc(-c2ncc(CNCC3CC3)c(N3CCC(CN)C3)n2)cc1Cl (stereo not drawn) [Compound 132]
13 | 5.00 to 6.00 | CN(C)CC1CCN(c2nc(-c3cc(Cl)cc(C(F)c4ccccc4)c3)ncc2CNC(=O)C2(C#N)CC2)C1 (stereo not drawn) [Compound 149]
14 | 5.00 to 6.00 | NCC1CCN(c2nc(-c3ccc(Cl)cc3NC(=O)C3(F)CC3)ncc2C2=CCNC2)C1 (stereo not drawn) [Compound 23]
15 | 5.00 to 6.00 | Cc1ccc(-c2ncc(CNC(=O)C3(C#N)CC3)c(N3CCC(CN(C)C)C3)n2)cc1Cl (stereo not drawn) [Compound 129]
16 | 5.00 to 6.00 | CN(C)CC1CCN(c2nc(-c3cc(Cl)cc(/C=C/c4ccccc4)c3)ncc2CNC(=O)C2(C#N)CC2)C1 (stereo not drawn) [Compound 144]

Row | pEC50 | Compound
17 | 5.00 to 6.00 | CN(C)CC1CCN(c2nc(-c3ccc(Cc4ccccc4)c(Cl)c3)ncc2CNC(=O)C2(C#N)CC2)C1 (stereo not drawn) [Compound 150]
18 | 4.30 to 5.00 | CN1CC(Oc2nc(-c3ccc(Cl)c(C(F)(F)F)c3)ncc2CNC(=O)C2(C#N)CC2)C1 [Compound 78]
19 | 5.00 to 6.00 | N#CC1(C(=O)NCc2cnc(-c3ccc(Cl)c(OC(F)(F)F)c3)nc2N2CCC(CN)C2)CC1 (stereo not drawn) [Compound 141]
20 | 5.00 to 6.00 | Cc1ccc(-c2ncc(CNC(=O)C3Cc4ccccc4O3)c(N3CCC(CN)C3)n2)cc1Cl (stereo not drawn) [Compound 135]
21 | 5.00 to 6.00 | CN(C)CC1CCN(c2nc(-c3cc(Cl)cc(-c4ccccc4)c3)ncc2CNC(=O)C2(C#N)CC2)C1 (stereo not drawn) [Compound 142]
22 | 5.00 to 6.00 | Cc1ccc(-c2ncc(OCC(=O)Nc3ccccc3)c(N3CCC(CN)C3)n2)cc1Cl (stereo not drawn) [Compound 131]
23 | 5.00 to 6.00 | CN(C)CC1CCN(c2nc(-c3cc(Cl)cc(Cc4ccccc4)c3)ncc2CNC(=O)C2(C#N)CC2)C1 (stereo not drawn) [Compound 148]
24 | 5.00 to 6.00 | Cc1c(Cl)cc(-c2ncc(CNC(=O)C3(C#N)CC3)c(N3CCC(CN)C3)n2)cc1Cl (stereo not drawn) [Compound 139]
25 | 4.30 to 5.00 | C#Cc1cc(-c2ncc(CNC(=O)C3(C#N)CC3)c(N3CCC(CN(C)C)C3)n2)cc(F)c1C (stereo not drawn) [Compound 147, 1-cyano-N-[[4-[3-[(dimethylamino)methyl]pyrrolidin-1-yl]-2-(3-ethynyl-5-fluoro-4-methyl-phenyl)pyrimidin-5-yl]methyl]cyclopropanecarboxamide]
26 | 5.00 to 6.00 | Cc1ccc(-c2ncc(CNc3ccccc3)c(N3CCC(CN)C3)n2)cc1Cl (stereo not drawn) [Compound 130]
27 | 5.00 to 6.00 | N#CC1(C(=O)NCc2cnc(-c3cc(F)c(C(F)(F)F)c(F)c3)nc2N2CCC(CN)C2)CC1 (stereo not drawn) [Compound 137]
28 | 5.00 to 6.00 | Cc1c(F)cc(-c2ncc(CNC(=O)C3(C#N)CC3)c(N3CCC(CN)C3)n2)cc1[N+](=O)[O-] (stereo not drawn) [Compound 140]
29 | 5.00 to 6.00 | CS(=O)(=O)NCc1cnc(-c2ccc(Cl)c(C(F)(F)F)c2)nc1N1CCC(CN)C1 (stereo not drawn) [Compound 6, N-[[4-[3-(aminomethyl)pyrrolidin-1-yl]-2-[4-chloro-3-(trifluoromethyl)phenyl]pyrimidin-5-yl]methyl]methanesulfonamide]
30 | 5.00 to 6.00 | CN(C)CC1CCN(c2nc(-c3cc(Cl)cc(C#Cc4ccccc4)c3)ncc2CNC(=O)C2(C#N)CC2)C1 (stereo not drawn) [Compound 143]
31 | 5.00 to 6.00 | Cc1ccc(-c2ncc(CNC(=O)C3CNC3)c(N3CCC(CN)C3)n2)cc1Cl (stereo not drawn) [Compound 85]

test system: Phospho-ERK (Thr202/Tyr204) in MiaPaCa-2 cells; assay: pERK inhibition in MiaPaca-2 cell line (HTRF); type: cell-based; settings: Homo sapiens, MIA PaCa-2, 1 hour incubation with compound
Experimental: MiaPaCa-2 cells (ATCC CRL-1420) were cultured in high glucose DMEM (Gibco 11965092) containing 10% fetal bovine serum (Gibco 1993708) and 1× Penicillin/Streptomycin, at 37° C. in a humid atmosphere of 5% CO2 in the air. Cells were plated in tissue-culture treated 96-well plates at a density of 10,000 cells/well and allowed to attach for 16 hours. The medium was then removed, and diluted compounds were added in a final concentration of 0.5% DMSO. After 1 hour of incubation, cells were lysed by the lysis buffer supplied with the Phospho-ERK (Thr202/Tyr204) cellular HTRF kit (Cisbio 64ERKPEH) and transferred to a 384-well low-volume white plate (PerkinElmer 6008280). The cell lysates were treated with the detection reagents supplied with the HTRF kit for 4 hours at ambient temperature in darkness. Two fluorescence intensities at the wavelengths (665 and 620 nm) were measured by the Envision plate reader (Perkin Elmer), and the data were processed and fitted to a 4-parameter logistic model for IC50 calculation (GraphPad Prism 9).

Row | pIC50 | Compound
32 | 4.30 to 5.00 | Cc1ccc(-c2ncc(CNC(=O)C3(F)CC3)c(O[C@@H]3CNC[C@@H]3O)n2)cc1Cl (racemic) [Compound 100]
33 | 5.00 to 6.00 | NCC1CCN(c2nc(-c3ccc(Cl)c(C(F)(F)F)c3)ncc2OC2CCNC2)C1 (stereo not drawn) [Compound 15]
34 | 5.00 to 6.00 | N#CC1(C(=O)NCc2cnc(-c3ccc(Cl)c(C(F)(F)F)c3)nc2N2CCC(F)(CN)C2)CC1 (stereo not drawn) [Compound 47]
35 | 5.00 to 6.00 | NCC1CCN(c2nc(-c3ccc(Cl)c(Cl)c3)ncc2C2=CCNC2)C1 (stereo not drawn) [Compound 10]
36 | 5.00 to 6.00 | N#CC1(C(=O)N2CC=C(c3cnc(-c4ccc(Cl)c(C(F)(F)F)c4)nc3N3CCC(CN)C3)C2)CC1 (stereo not drawn) [Compound 29]
37 | 4.30 to 5.00 | NC[C@@H]1CCN(c2nc(-c3ccc(Cl)c(C(F)(F)F)c3)ncc2C2CC2)C1 [Compound 14]
38 | 5.00 to 6.00 | NCC1CCN(c2nc(-c3ccc(Cl)cc3F)ncc2C2=CCNC2)C1 (stereo not drawn) [Compound 11]
39 | 5.00 to 6.00 | NCC1CCN(c2nc(-c3ccc(Cl)c(C(F)(F)F)c3)ncc2OC2COC2)C1 (stereo not drawn) [Compound 16]
40 | 5.00 to 6.00 | Cc1ccc(-c2ncc(CNS(=O)(=O)c3ccccc3)c(N3CCC(CN)C3)n2)cc1Cl (stereo not drawn) [Compound 94]
41 | 5.00 to 6.00 | NCC1CCN(c2nc(-c3ccc(Cl)c(C(F)(F)F)c3)ncc2OC2CNC2)C1 (stereo not drawn) [Compound 13]
42 | 5.00 to 6.00 | NCC1CCN(c2nc(-c3ccc(Cl)cc3NC(=O)C3(F)CC3)ncc2C2=CCNC2)C1 (stereo not drawn) [Compound 23]
43 | 5.00 to 6.00 | NCC1CCN(c2nc(-c3ccc(C(F)(F)F)cc3F)ncc2C2=CCNC2)C1 (stereo not drawn) [Compound 8]
44 | 5.00 to 6.00 | Cc1ccc(-c2ncc(NS(=O)(=O)C3CC3)c(N3CCC(CN)C3)n2)cc1Cl (stereo not drawn) [Compound 111]
45 | 5.00 to 6.00 | Cc1ccc(-c2ncc(OCC(=O)N(C)C)c(N3CCC(CN)C3)n2)cc1Cl (stereo not drawn) [Compound 127]
46 | 4.30 to 5.00 | Cc1ccc(-c2ncc(CNC(=O)C3(F)CC3)c(CN3CCN(C)CC3)n2)cc1Cl [Compound 128, N-[[2-(3-chloro-4-methyl-phenyl)-4-[(4-methylpiperazin-1-yl)methyl]pyrimidin-5-yl]methyl]-1-fluoro-cyclopropanecarboxamide]
47 | 5.00 to 6.00 | N#Cc1cc(-c2ncc(C3=CCNC3)c(N3CCC(CN)C3)n2)ccc1Cl (stereo not drawn) [Compound 22]
48 | 4.30 to 5.00 | CCOC(=O)NCc1cnc(-c2ccc(C(F)(F)F)cc2F)nc1N1CCC(CN)C1 (stereo not drawn) [Compound 21, ethyl N-[[4-[3-(aminomethyl)pyrrolidin-1-yl]-2-[2-fluoro-4-(trifluoromethyl)phenyl]pyrimidin-5-yl]methyl]carbamate]
49 | 5.00 to 6.00 | Cc1ccc(-c2ncc(CNC(=O)C3(C#N)CC3)c(N3CCN(C)CC3)n2)cc1Cl [Compound 115]
50 | 4.30 to 5.00 | N#CC1(C(=O)NCc2cnc(-c3ccc4ccccc4c3)nc2N2CCC(CN)C2)CC1 (stereo not drawn) [Compound 64]
51 | 5.00 to 6.00 | Cc1ccc(-c2ncc(NC(=O)c3ccccc3)c(N3CCC(CN)C3)n2)cc1Cl (stereo not drawn) [Compound 114]
52 | 5.00 to 6.00 | NCCOc1cnc(-c2ccc(Cl)c(C(F)(F)F)c2)nc1N1CC[C@@H](CN)C1 [Compound 3, (S)-2-((4-(3-(aminomethyl)pyrrolidin-1-yl)-2-(4-chloro-3-(trifluoromethyl)phenyl)pyrimidin-5-yl)oxy)ethan-1-amine]
53 | 4.30 to 5.00 | N#CC1(C(=O)NCc2cnc(-c3ccc(Cl)cc3F)nc2N2CCC(CN)C2)CC1 (stereo not drawn) [Compound 24]
54 | 5.00 to 6.00 | N#CC1(C(=O)NCc2cnc(-c3ccc4c(c3)CC4)nc2N2CCC(CN)C2)CC1 (stereo not drawn) [Compound 117]

Source: US20240327356A1, “PYRIMIDINE BASED RAS MODULATORS AND USES THEREOF” (QUANTA THERAPEUTICS, INC., priority 2021, published 2024)
